Experimental data as given in US6750244B2, “Compounds active at a novel site on receptor-operated calcium channels useful for treatment of neurological disorders and diseases” (NPS Pharmaceuticals, Inc., priority 1993, dated 2004).
Values joined by “and” are separate entries in the source; they are usually repeats but may differ in a detail not shown here. Identical values can stand only once. Counter-ions that a name gives are not always drawn. Marks after values point to notes of the source that are not given here.

Each compound was assayed on NMDA receptor (assay: Inhibition of NMDA/glycine-induced increases in intracellular calcium in cultured rat cerebellar granule cells (RCGC)). Details: NMDA/glycine-induced increases in intracellular calcium, cultured rat cerebellar granule cells; read-out: IC50 (μM) vs. NMDA.
Type: cell-based

| Structure (SMILES) | IC50 |
| --- | --- |
| CC(C)NCCC(c1ccccc1)c1ccccc1 [Compound 72, N-isopropyl-3,3-diphenylpropylamine] | 7.4 µM |
| N=C(N)NCCCC(N)C(=O)NCCCNCCCNCCCCCNC(=O)C(CC(N)=O)NC(=O)Cc1ccccc1O (centres unmarked) [Compound 10] | 0.082 µM |
| NCCCCC(c1ccccc1)c1ccccc1 [Compound 71, 5,5-diphenylpentylamine] | 6.35 µM and 6.4 µM |
| CCC(CN)C(c1cccc(F)c1)c1cccc(F)c1 (centres unmarked) [Compound 55, 3,3-bis(3-fluorophenyl)-2-ethyl-1-propylamine] | 0.035 µM |
| COc1ccc(C(CCN)c2cccc(F)c2)cc1F (racemic) [Compound 173, (R,S)-3-(3-Fluoro-4-methoxy)-3-(3-fluorophenyl)propylamine maleate] | 22.9 µM |
| NCCc1ccccc1Cc1cccc(F)c1 [Compound 130] | 0.851 µM |
| NCCc1ccccc1Cc1ccccc1F [Compound 129] | 1.26 µM |
| CCN(CC)CCC(c1ccccc1)c1ccccc1 [Compound 74, N,N-diethyl-3,3-diphenylpropylamine] | 27.5 µM |
| NCCC(c1ccc(F)cc1)c1ccccc1F (centres unmarked) [Compound 76, 3-(2-fluorophenyl)-3-(4-fluorophenyl)-1-propylamine] | 0.73 µM |
| C[C@@H](NCCC(c1ccccc1)c1ccccc1)c1ccccc1 [(R)-fendiline, reference compound] | 0.719 µM |
| NCCCOCCCCOCCCNC(=O)Cc1cc(Br)ccc1O [Compound 15] | 4.9 µM |
| COc1ccc(C(CC(C)N)c2ccccc2)cc1 (centres unmarked) [Astra compound, reference compound] | > 30 µM |
| COc1cccc(C(=CCN)c2cccc(OC)c2)c1 [Compound 116, 3,3-bis(3-methoxyphenyl)-prop-2-ene-1-amine] | 3.6 µM and 4.47 µM |
| CN(C)CCC(c1ccccc1)c1ccccc1 [Compound 73, N,N-dimethyl-3,3-diphenylpropylamine] | 12.6 µM |
| NCCC(c1ccc(F)cc1)c1ccc(F)cc1 [Compound 77, 3,3-bis(4-fluorophenyl)-1-propylamine] | 5.5 µM |
| NCCc1ccccc1Cc1ccc(F)cc1 [Compound 131] | 1.23 µM |
| NCCC(c1ccccc1)C1CCCCC1 (centres unmarked) [Compound 75] | 0.94 µM |
| COc1cccc(/C(=C\CN)c2cccc(Cl)c2)c1 [Compound 143] | 2.82 µM |
| NCC(c1ccccc1)c1ccccc1 [2,2-diphenylethylamine, reference compound] | 24.5 µM |
| NCCCC(c1ccccc1)c1ccccc1 [Compound 70, 4,4-diphenylbutylamine] | 1.7 µM |
| CCNCCC(c1ccccc1)c1ccccc1 [Compound 68, N-ethyl-3,3-diphenylpropylamine] | 2.9 µM |
| C[C@H](NCCC(c1ccccc1)c1ccccc1)c1ccccc1 [(S)-fendiline, reference compound] | 0.686 µM |

Continued, values first:

| IC50 | Structure (SMILES) |
| --- | --- |
| 10.7 µM | OC(CCN1CCCCC1)(c1ccccc1)c1ccccc1 [pridinol, reference compound] |
| 28.8 µM | CN(C)CCC(Oc1ccc2c(c1)CCCC2)c1ccc(C#N)cc1 (centres unmarked) [Novo-Nordisk compound^d, reference compound] |
| > 10 µM | O=c1[nH]c2ccccc2n1C1CCN(CCCC(c2ccc(F)cc2)c2ccc(F)cc2)CC1 [pimozide, reference compound] |
| > 100 µM | CN(C)CCC(c1ccc(Cl)cc1)c1ccccn1 (centres unmarked) [chlorpheniramine, reference compound] |
| > 30 µM | Cc1cccc(C)c1NC(=O)CN1CCN(CCCC(c2ccc(F)cc2)c2ccc(F)cc2)CC1 [lidoflazine, reference compound] |
| ~10 µM | CN1CCN(C(c2ccccc2)c2ccc(Cl)cc2)CC1 (centres unmarked) [chlorcyclizine, reference compound] |
| 138 µM | CN(C)CCC(c1ccc(Br)cc1)c1ccccn1 (centres unmarked) [brompheniramine, reference compound] |
| > 100 µM | CC(C)N(CCC(C(N)=O)(c1ccccc1)c1ccccn1)C(C)C (centres unmarked) [disopyramide, reference compound] |
| 5.13 µM | OC(CCN1CCCCC1)(c1ccccc1)C1CCCCC1 (centres unmarked) [trihexyphenidyl, reference compound] |
| 87 µM | CC(C)[N+](C)(CCC(C(N)=O)(c1ccccc1)c1ccccc1)C(C)C [isopropamide, reference compound] |
| 62 µM | CN(C)CCOC(C)(c1ccccc1)c1ccccn1 (centres unmarked) [doxylamine, reference compound] |
| 28 µM | CN1CCN(C(c2ccccc2)c2ccccc2)CC1 [cyclizine, reference compound] |
| 22 µM | CN(C)CCC(c1ccccc1)c1ccccn1 (centres unmarked) [pheniramine, reference compound] |
| 76 µM | CN(C)CCN(Cc1ccc(Cl)cc1)c1ccccn1 [chloropyramine, reference compound] |
| ≥ 26 µM | CN(C)C/C=C(/c1ccc(Br)cc1)c1cccnc1 [zimeldine, reference compound] |

Same assay, conditions: read-out: IC50 (μM) vs. NMDA; NMDA/glycine-induced increases in intracellular calcium, cultured rat cerebellar granule cells

| Structure (SMILES) | IC50 |
| --- | --- |
| NCCC(c1cccc(C(F)(F)F)c1)c1cccc(C(F)(F)F)c1 [Compound 78, 3,3-bis[3-(trifluoromethyl)phenyl]-1-propylamine] | 10.2 µM |

These compounds were tested on NMDA receptor-ionophore complex (site labeled by [3H]MK-801) (assay: Inhibition of [3H]MK-801 binding in rat cortical/hippocampal washed membrane preparations). Details: @ 1 μM.

| activity vs. [3H]MK-801 binding | Structure (SMILES) |
| --- | --- |
| inactive @ 1 μM | NCCC1c2cccc(F)c2CCc2c(F)cccc21 [Compound 193] |

Same assay, conditions: at 80 μM

| Structure (SMILES) | % inhibition of [3H]MK-801 binding at the stated concentration (IC50 study incomplete) |
| --- | --- |
| N=C(N)NCCCC(N)C(=O)NCCCNCCCNCCCCCNC(=O)C(CC(N)=O)NC(=O)Cc1ccccc1O (centres unmarked) [Compound 10] | (57% at 80 μM)^d |

Same assay, conditions: read-out: IC50 (μM) vs. [3H]MK-801; rat cortical/hippocampal washed membranes

| Structure (SMILES) | IC50 |
| --- | --- |
| CCC(CN)C(c1cccc(F)c1)c1cccc(F)c1 (centres unmarked) [Compound 55, 3,3-bis(3-fluorophenyl)-2-ethyl-1-propylamine] | 0.153 µM |
| COc1ccc(C(CCN)c2cccc(F)c2)cc1F (racemic) [Compound 173, (R,S)-3-(3-Fluoro-4-methoxy)-3-(3-fluorophenyl)propylamine maleate] | 24.1 µM |
| CN(C)CCCN1c2ccccc2Sc2ccc(Cl)cc21 [Chlorpromazine, reference compound] | 11.2 µM |
| CN(C)CCCN1c2ccccc2CCc2ccccc21 [Imipramine, reference compound] | 6.75 µM |
| CNCCCN1c2ccccc2CCc2ccccc21 [desipramine, reference compound] | 3.26 µM |
| NCC[C@H](c1cccc(F)c1)c1ccc(O)c(F)c1 (racemic) [Compound 175, (R,S)-3-(3-Fluoro-4-hydroxy)-3-(3-fluorophenyl)propylamine maleate] | 5.1 µM |
| CN(C)CCC=C1c2ccccc2CCc2ccccc21 [Amitriptyline, reference compound] | 14.2 µM |

Further lines, results first:

| IC50 | Structure (SMILES) |
| --- | --- |
| 14.5 µM | CN(C)CCC=C1c2ccccc2C=Cc2ccccc21 [Cyclobenzaprine, reference compound] |
| 0.754 µM | Cc1ccccc1OC(CCN)c1ccccc1 (centres unmarked) [Compound 177] |
| 2.24 µM | NCCC1c2ccccc2CCc2c(F)cccc21 (centres unmarked) [Compound 196] |
| 10 µM | CNCCC(c1cccc(F)c1)c1ccc(O)c(F)c1 (racemic) [Compound 176, (R,S)-N-Methyl-3-(3-fluoro-4-hydroxy)-3-(3-fluorophenyl)propyl amine hydrochloride] |
| 0.053 µM | NCCC1c2ccccc2CCc2ccc(F)cc21 (centres unmarked) [Compound 197, 3-Fluoro-10,11-dihydro-5-(2-aminoethyl)-5H-dibenzo[a,d]cycloheptene hydrochloride] |
| 1.25 µM | COc1ccccc1OC(CCN)c1ccccc1 (centres unmarked) [Compound 178] |
| 57 µM | CNCCC(c1cccc(F)c1)c1ccc(OC)c(F)c1 (racemic) [Compound 174, (R,S)-N-Methyl-3-(3-fluoro-4-methoxy)-3-(3-fluorophenyl)propyl amine maleate] |
| 0.371 µM | NCCC1c2cc(F)ccc2CCc2c(F)cccc21 (centres unmarked) [Compound 194] |
| 0.029 µM | NCCC1c2cc(F)ccc2CCc2ccc(F)cc21 [Compound 195, 3,7-Difluoro-10,11-dihydro-5-(2-aminoethyl)-5H-dibenzo[a,d]cycloheptene hydrochloride] |
